# From ChEMBL document CHEMBL1201862, “PubChem BioAssay data set” (2004)
#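 The compound was tested at five concentrations on cells cultured in 96-well plates, with a 48-hour exposure period. GI50 marks 50% less growth.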 The source made the active and inactive calls. Rule as the data show it: active = GI50 up to about 1.1 µM and inactive = higher.
# What was measured:
# Experiment in all cases: NCI-60 cell line screen, 48 h
# [1] = system: Hs-578T
# [2] = system: NCI-H460
# [3] = system: SK-MEL-28
# [4] = system: OVCAR-4
# [5] = system: M14
# [6] = system: A498
# [7] = system: DU-145
# [8] = system: UACC-62
# [9] = system: NCI/ADR-RES
# [10] = system: MOLT-4
# [11] = system: UO-31
# [12] = system: OVCAR-3
# [13] = system: SK-MEL-5
# [14] = system: OVCAR-8
# [15] = system: T47D
# [16] = system: COLO 205
# [17] = system: SK-MEL-2
# [18] = system: SNB-19
# [19] = system: OVCAR-5
# [20] = system: MDA-MB-231
# [21] = system: SF-539
# [22] = system: SW-620
# [23] = system: BT-549
# [24] = system: HOP-92
# [25] = system: A549
# [26] = system: HCT-116
# [27] = system: HT-29
# [28] = system: PC-3
# [29] = system: HCC 2998
# [30] = system: RXF 393
# [31] = system: LOX IMVI
# [32] = system: NCI-H23
# [33] = system: HCT-15
# [34] = system: NCI-H522
# [35] = system: RPMI-8226
# [36] = system: ACHN
# [37] = system: KM12
# [38] = system: CCRF-CEM
# [39] = system: SF-295
# [40] = system: U-251
# [41] = system: HL-60
# [42] = system: K562
# [43] = system: UACC-257
# [44] = system: EKVX
# [45] = system: Malme-3M
# [46] = system: SF-268
# [47] = system: MCF7
# [48] = system: CAKI-1
# [49] = system: IGROV-1
# [50] = system: MDA-MB-435
# [51] = system: TK-10
# [52] = system: HOP-62
# [53] = system: SK-OV-3
# [54] = system: SNB-75
# [55] = system: 786-0
# [56] = system: SN12C
# [57] = system: NCI-H226
smiles,measurement,setting,value
Cc1ccc(S(=O)(=O)OCCN(CCOS(=O)(=O)c2ccc(C)cc2)c2ccc(C=O)cc2)cc1,GI50,[1],36.2 µM (inactive)
same,GI50,[2],21.9 µM (inactive)
same,GI50,[3],31.4 µM (inactive)
same,GI50,[4],21.2 µM (inactive)
same,GI50,[5],32.4 µM (inactive)
same,GI50,[6],24.9 µM (inactive)
same,GI50,[7],27.1 µM (inactive)
same,GI50,[8],20 µM (inactive)
same,GI50,[9],36.2 µM (inactive)
same,GI50,[10],32.4 µM (inactive)
same,GI50,[11],19.5 µM (inactive)
same,GI50,[12],23.7 µM (inactive)
same,GI50,[13],32.9 µM (inactive)
same,GI50,[14],41.8 µM (inactive)
same,GI50,[15],40.7 µM (inactive)
same,GI50,[16],28.1 µM (inactive)
same,GI50,[17],16.5 µM (inactive)
same,GI50,[18],60.8 µM (inactive)
same,GI50,[19],25.3 µM (inactive)
same,GI50,[20],23.8 µM (inactive)
same,GI50,[21],24.8 µM (inactive)
same,GI50,[22],29.6 µM (inactive)
same,GI50,[23],28.8 µM (inactive)
same,GI50,[24],26.1 µM (inactive)
same,GI50,[25],32.5 µM (inactive)
same,GI50,[26],30.1 µM (inactive)
same,GI50,[27],32.1 µM (inactive)
same,GI50,[28],32.7 µM (inactive)
same,GI50,[29],28.7 µM (inactive)
same,GI50,[30],15.7 µM (inactive)
same,GI50,[31],38.7 µM (inactive)
same,GI50,[32],36.2 µM (inactive)
same,GI50,[33],30.1 µM
same,GI50,[34],10.8 µM (inactive)
same,GI50,[35],38.4 µM (inactive)
same,GI50,[36],33.6 µM (inactive)
same,GI50,[37],22.8 µM (inactive)
same,GI50,[38],34.8 µM (inactive)
same,GI50,[39],44.3 µM (inactive)
same,GI50,[40],24.3 µM (inactive)
same,GI50,[41],42.3 µM (inactive)
same,GI50,[42],38.4 µM (inactive)
same,GI50,[43],24.8 µM (inactive)
same,GI50,[44],30.8 µM (inactive)
same,GI50,[45],25.4 µM (inactive)
same,GI50,[46],46.6 µM (inactive)
same,GI50,[47],30.7 µM (inactive)
same,GI50,[48],21.1 µM (inactive)
same,GI50,[49],36.1 µM (inactive)
same,GI50,[50],21.4 µM (inactive)
same,GI50,[51],36.3 µM (inactive)
CC(C)(C)OC(=O)NC(C)(C)C(=O)NCCC(=O)O,GI50,[52],> 100 µM (inactive)
same,GI50,[1],> 100 µM (inactive)
same,GI50,[2],> 100 µM (inactive)
same,GI50,[3],> 100 µM (inactive)
same,GI50,[53],74.6 µM (inactive)
same,GI50,[4],> 100 µM (inactive)
same,GI50,[5],> 100 µM (inactive)
same,GI50,[6],> 100 µM (inactive)
same,GI50,[8],> 100 µM (inactive)
same,GI50,[9],> 100 µM (inactive)
same,GI50,[10],> 100 µM (inactive)
same,GI50,[11],> 100 µM (inactive)
same,GI50,[12],> 100 µM (inactive)
same,GI50,[13],> 100 µM (inactive)
same,GI50,[14],> 100 µM (inactive)
same,GI50,[15],> 100 µM (inactive)
same,GI50,[16],> 100 µM (inactive)
same,GI50,[17],> 100 µM (inactive)
same,GI50,[18],> 100 µM (inactive)
same,GI50,[19],> 100 µM (inactive)
same,GI50,[54],> 100 µM (inactive)
same,GI50,[20],> 100 µM (inactive)
same,GI50,[21],> 100 µM (inactive)
same,GI50,[22],> 100 µM (inactive)
same,GI50,[23],> 100 µM (inactive)
same,GI50,[25],> 100 µM (inactive)
same,GI50,[27],> 100 µM (inactive)
same,GI50,[55],> 100 µM (inactive)
same,GI50,[28],> 100 µM (inactive)
same,GI50,[30],> 100 µM (inactive)
same,GI50,[31],> 100 µM (inactive)
same,GI50,[32],> 100 µM (inactive)
same,GI50,[33],> 100 µM
same,GI50,[34],> 100 µM (inactive)
same,GI50,[35],> 100 µM (inactive)
same,GI50,[56],> 100 µM (inactive)
same,GI50,[36],> 100 µM (inactive)
same,GI50,[37],> 100 µM (inactive)
same,GI50,[38],> 100 µM (inactive)
same,GI50,[39],> 100 µM (inactive)
same,GI50,[57],> 100 µM (inactive)
same,GI50,[40],> 100 µM (inactive)
same,GI50,[42],> 100 µM (inactive)
same,GI50,[43],> 100 µM (inactive)
same,GI50,[44],> 100 µM (inactive)
same,GI50,[46],> 100 µM (inactive)
same,GI50,[47],> 100 µM (inactive)
same,GI50,[48],> 100 µM (inactive)
same,GI50,[49],> 100 µM (inactive)
same,GI50,[50],> 100 µM (inactive)
same,GI50,[51],> 100 µM (inactive)
